6 molecules from ChEMBL document CHEMBL5321208, “The effect of side chain variations on quinazoline-pyrimidine G-quadruplex DNA ligands” (Eur J Med Chem, 2023) can be followed below.

A word on the IC50: it is the point on the concentration scale where inhibition reaches its midpoint. Usually ΔTm stands for the shift of the melting midpoint relative to a reference. A word on the Kd: it is a measure of binding affinity in units of concentration.

Activity calls are given as the source filed them. The rule behind the calls is not given here.

In series [1] the test system is Quadruplex DNA. The experiment in a line: Binding affinity to FAM/TAMRA-labelled parallel KRAS G4 DNA (unknown origin) assessed as thermal stabilization at lowest concentration at 10 to 95 degreeC by FRET analysis. Format: nucleic-acid assay.
In a further series the test system is dsDNA. The experiment in a line: Binding affinity to double stranded DNA (unknown origin) assessed as thermal stabilization at 1 to 8 uM measured at 10 to 95 degreeC by FRET analysis. Format: nucleic-acid assay. The settings on record: dose 1-8 µM.
Series [2] concerns Quadruplex DNA. The series is described as follows: Binding affinity to FAM/TAMRA-labelled parallel KRAS G4 DNA (unknown origin) assessed as thermal stabilization at highest concentration at 10 to 95 degreeC by FRET analysis. Format: nucleic-acid assay.
The test system of series [3] is Quadruplex DNA. The series is described as follows: Binding affinity to FAM/TAMRA-labelled c-MYC Pu22 G4 DNA (unknown origin) assessed as thermal stabilization at 1 to 8 uM measured at 10 to 95 degreeC by FRET analysis. Format: nucleic-acid assay. The settings on record: dose 1-8 µM.
The subject of series [4] is Quadruplex DNA. The experiment in a line: Binding affinity to FAM/TAMRA-labelled antiparallel Bom17 G4 DNA (unknown origin) assessed as thermal stabilization at 1 to 8 uM measured at 10 to 95 degreeC by FRET analysis. Format: nucleic-acid assay. The settings on record: dose 1-8 µM.
Series [5] deals with Quadruplex DNA. The series is described as follows: Binding affinity to FAM/TAMRA-labelled parallel c-MYC Pu24T G4 DNA (unknown origin) assessed as thermal stabilization at 1 to 8 uM measured at 10 to 95 degreeC by FRET analysis. It counts as nucleic-acid assay. The settings on record: dose 1-8 µM.
Series [6] relates to Quadruplex DNA. The experiment in a line: Binding affinity to FAM/TAMRA-labelled parallel 25ceb G4 DNA (unknown origin) assessed as thermal stabilization at 1 to 8 uM measured at 10 to 95 degreeC by FRET analysis. It counts as nucleic-acid assay. The settings on record: dose 1-8 µM.
A short description of series [7]: Antitumor activity against KPC mouse pancreatic cancer organoid expressing lentiviral modified GFP co-cultured with WT C57BL/6J mouse pancreatic stellate cells expressing mKate2 assessed as inhibition of cell growth incubated for 5 days by resazurin dye based fluorescence microscopic analysis. Format: functional, tissue-based. The settings on record: 120 h. Background: Resazurin is reduced to fluorescent resorufin, in cell work by metabolically active cells.

Series [8] deals with Quadruplex DNA. The series is described as follows: Binding affinity to parallel c-MYC Pu24T G4 DNA (unknown origin) assessed as thermal stabilization by measuring change in melting temperature at 5 uM measured at 1:1 DNA to ligand ratio by CD spectra analysis. It counts as nucleic-acid assay.
For series [9], the system named is Quadruplex DNA. The series is described as follows: Binding affinity to FAM/TAMRA-labelled parallel c-MYC Pu24T G4 DNA (unknown origin) assessed as thermal stabilization in the presence of 15 equivalents of double stranded DNA by FRET competition assay. It counts as nucleic-acid assay.
The subject of series [10] is Quadruplex DNA. The experiment in a line: Binding affinity to FAM/TAMRA-labelled c-KIT2 G4 DNA (unknown origin) assessed as thermal stabilization at 1 to 8 uM measured at 10 to 95 degreeC by FRET analysis. The settings on record: dose 1-8 µM. It counts as nucleic-acid assay.
Series [11] relates to Quadruplex DNA. The experiment in a line: Binding affinity to FAM/TAMRA-labelled parallel KRAS G4 DNA (unknown origin) assessed as thermal stabilization by measuring change in melting temperature at 2 uM in the presence of 100 equivalents of double stranded DNA by FRET competition assay. Format: nucleic-acid assay.
The test system of series [12] is Quadruplex DNA. The experiment in a line: Binding affinity to FAM/TAMRA-labelled parallel KRAS G4 DNA (unknown origin) assessed as thermal stabilization in the presence of 15 equivalents of double stranded DNA by FRET competition assay. It counts as nucleic-acid assay.
Series [13] concerns Quadruplex DNA. The experiment in a line: Binding affinity to FAM/TAMRA-labelled 21g G4 DNA (unknown origin) assessed as thermal stabilization at 1 to 8 uM measured at 10 to 95 degreeC by FRET analysis. It counts as nucleic-acid assay. The settings on record: dose 1-8 µM.
A short description of series [14]: Cytotoxicity against wildtype C57BL/6J mouse cancer activated fibroblast cells assessed as inhibition of cell growth incubated for 5 days by resazurin dye based fluorescence microscopic analysis. Format: toxicity.
In series [15] the target is Quadruplex DNA. The experiment in a line: Binding affinity to 5'-Cy5-labelled parallel c-MYC Pu24T G4 DNA (unknown origin) assessed as dissociation constant by MST analysis. Format: nucleic-acid assay.
The test system of series [16] is Quadruplex DNA. The experiment in a line: Binding affinity to parallel c-MYC Pu24T G4 DNA (unknown origin) assessed as change in topology at 5 uM by CD spectra analysis. It counts as nucleic-acid assay.
Series [17] concerns Quadruplex DNA. The series is described as follows: Binding affinity to FAM/TAMRA-labelled antiparallel TBA G4 DNA (unknown origin) assessed as thermal stabilization at 1 to 8 uM measured at 10 to 95 degreeC by FRET analysis. The settings on record: dose 1-8 µM. Format: nucleic-acid assay.
Series [18] concerns Quadruplex DNA. The experiment in a line: Binding affinity to FAM/TAMRA-labelled c-KIT1 G4 DNA (unknown origin) assessed as thermal stabilization at 1 to 8 uM measured at 10 to 95 degreeC by FRET analysis. Format: nucleic-acid assay. The settings on record: dose 1-8 µM.
Series [19] has as its system Quadruplex DNA. The series is described as follows: Binding affinity to FAM/TAMRA-labelled parallel c-MYC Pu24T G4 DNA (unknown origin) assessed as thermal stabilization by measuring change in melting temperature at 2 uM in the presence of 100 equivalents of double stranded DNA by FRET competition assay. Format: nucleic-acid assay.

Take `Cc1cc(NCCc2c[nH]c3ccccc23)nc(Nc2nc(C)c3ccc4c(c3n2)CCC4)n1`: the outcome in the series with Quadruplex DNA [1] and in the series with dsDNA was inactive. The outcome with Quadruplex DNA [2] was Active.

As for `Cc1cc(NCCCN2CCCCC2)nc(Nc2nc(C)c3ccc4c(c3n2)CCC4)n1`, the outcome in the series on Quadruplex DNA [3], in the series on Quadruplex DNA [5], in the series with Quadruplex DNA [9], in the series on Quadruplex DNA [10], in the series with Quadruplex DNA [12] and in the series with Quadruplex DNA [13] was Active. For the same molecule, the outcome in the series with Quadruplex DNA [18] was Active. Further, the result with Quadruplex DNA [4], in the series on Quadruplex DNA [6], with dsDNA, in the series with Quadruplex DNA [16] and in the series on Quadruplex DNA [17] was inactive. Further, the IC50 in series [7] was 793 nM. Also, the ΔTm in the series on Quadruplex DNA [8] came to 4 °C; in the series on Quadruplex DNA [11], 10 °C; with Quadruplex DNA [19] it was 7 °C. The IC50 at 5 days in series [14] is > 500 nM. Also, the Kd at Quadruplex DNA [15] was found to be 285 nM.

With `Cc1cc(NCCCN2CCN(C)CC2)nc(Nc2nc(C)c3ccc4c(c3n2)CCC4)n1`, the outcome in the series with Quadruplex DNA [3], in the series on Quadruplex DNA [5], in the series on Quadruplex DNA [9], with Quadruplex DNA [10], with Quadruplex DNA [12] and in the series on Quadruplex DNA [13] was Active. Besides, in the series on Quadruplex DNA [18], the result was Active. Besides, the outcome in the series on Quadruplex DNA [4], in the series with Quadruplex DNA [6], in the series on dsDNA, with Quadruplex DNA [16] and in the series with Quadruplex DNA [17] was inactive. For the same molecule, the IC50 in [7] was found to be 211 nM. The results for the ΔTm in the series with Quadruplex DNA [8], with Quadruplex DNA [11] and with Quadruplex DNA [19] were 5 °C, 10 °C and 7 °C, respectively. Besides, in series [14], the IC50 at 5 days was 264 nM. Besides, the dissociation constant Kd at Quadruplex DNA [15] is 265 nM.

For `CCN(CC)CCCNc1cc(C)nc(Nc2nc(C)c3ccc4c(c3n2)CCC4)n1`, the result in the series with Quadruplex DNA [3], in the series on Quadruplex DNA [5], in the series with Quadruplex DNA [9], with Quadruplex DNA [10], with Quadruplex DNA [12] and in the series with Quadruplex DNA [13] was Active. Also, the result in the series on Quadruplex DNA [18] was Active. In addition, the outcome in the series with Quadruplex DNA [4], with Quadruplex DNA [6], in the series with dsDNA, in the series on Quadruplex DNA [16] and in the series on Quadruplex DNA [17] was inactive. Further, the IC50 in series [7] is 193 nM. Also, the ΔTm in the series with Quadruplex DNA [8] worked out at 5 °C; in the series with Quadruplex DNA [11] it was 10 °C; with Quadruplex DNA [19], 7 °C. Also, in series [14], the IC50 at 5 days is 2820 nM. Also, at Quadruplex DNA [15], the Kd is 360 nM.

In the case of `Cc1cc(NCCc2c[nH]c3ccccc23)nc(Nc2nc(C)c3ccc4c(c3n2)CCCC4)n1`, the outcome in the series with Quadruplex DNA [1] and in the series on dsDNA was inactive. Also, in the series on Quadruplex DNA [2], the outcome was Active.

Regarding `Cc1cc(NCCCN2CCCC2)nc(Nc2nc(C)c3ccc4c(c3n2)CCC4)n1`, the result in the series on Quadruplex DNA [3], in the series on Quadruplex DNA [5], in the series on Quadruplex DNA [9], with Quadruplex DNA [10], with Quadruplex DNA [12] and with Quadruplex DNA [13] was Active. For the same molecule, the result in the series on Quadruplex DNA [18] was Active. For the same molecule, the result in the series with Quadruplex DNA [4], in the series with Quadruplex DNA [6], in the series with dsDNA, in the series with Quadruplex DNA [16] and with Quadruplex DNA [17] was inactive. In addition, in series [7], the IC50 is 161 nM. The ΔTm turned out to be 5 °C with Quadruplex DNA [8], 10 °C in the series on Quadruplex DNA [11] and 7 °C with Quadruplex DNA [19]. In addition, the IC50 at 5 days in series [14] came to 2520 nM. Besides, the Kd at Quadruplex DNA [15] was found to be 275 nM.
